US20140121237A1, “Methods for Inhibiting Virus Replication” (priority 2011, published 2014)
Like-named read-outs stand apart in the source and are kept apart here.

What was measured:
A/WSN/33 [1] = assay: In vitro inhibition assay in BEAS2B cells, virus copies by qRT-PCR; format: cell-based, Influenza A virus
A/WSN/33 [2] = format: cell-based, Influenza A virus
CAMKIIB gene expression = format: in vivo, mice; conditions: 10 mg/kg; 24 h and 48 h post-treatment
[3] = mouse, in vivo
A/WSN/33 [4] = assay: Mouse infection, lung M gene copy number by qPCR; format: in vivo, BALB/c female mice; conditions: prophylactic, NSC 95397 […], KN-93 10 mg/kg by gavage, lungs 48 h after infection
A/WSN/33 [5] = conditions: previously shown (literature); cited from earlier work
A/CA/04/09 = assay: Mouse infection, lung infectious virus titer (TCID50 on MDCK cells); format: in vivo, BALB/c female mice; conditions: NSC 95397 […], KN-93 10 mg/kg; for lung infectious virus (TCID50) vs control: prophylactic
A/New Calcdonia/20/90 [6] = assay: Inhibition assay in A549 cells (qRT-PCR copy number, NP staining); format: cell-based, Influenza A virus; conditions: A549 cells treated prophylactically or therapeutically, varying concentrations
[7] = in vivo; cited from earlier work
SLC22A8 gene [8] = tested on: SLC22A8 gene; set-up: species or system BALB/c mice; conditions: mouse, in vivo
SLC22A8 gene [9] = format: cell-based, human; conditions: A549 cells; varying concentrations; 24 and 48 h
A/New Calcdonia/20/90 [10] = assay: Influenza replication in lungs of mice (qRT-PCR, TCID50); format: in vivo, BALB/c mice; conditions: mice treated with 10 or 200 mg/kg
Method: (§1) Animals. BALB/c female mice (6-8 week-old) were obtained from NCI. All experiments and procedures were Institutional Animal Care and Use Committee (IACUC) approved by the IACUC of UGA. The animals were kept alone in cages. They were allowed free access to water and food both before and during the experiments. All experiments were performed with 5 mice per group and repeated independently at least twice.
(§2) Drug treatment and infection. Probenecid was dissolved in PBS and injected intraperitoneally at final doses of 10 and 200 mg/kg body weight (about 0.2 ml per animal). Similar studies were done using the same doses but delivering by gavage. […] The treatments were 24 h or 48 h before infection. Prior to infection, mice were anesthetized with Avertin and infected by intranasal instillation with 50 μl of PBS containing 100 PFU of A/WSN/33 or A/New Calcdonia/20/90 influenza virus. The lungs of the mice were collected at 48 hip for qRT-PCR and TCID50. In some studies, Probenecid was administered at 48 h prior to influenza virus infection by tail vein injection (200 ul) where the following groups were evaluated (5 mice/group): Group 1—Probenecid 5.0 mg/kg; Group 2—Probenecid 0.5 mg/kg; Group 3—Probenecid 0.05 mg/kg; Group 4—Positive Control—KN93 (10 mg/kg); Group 5—Negative Control (PBS); Group 6—Probenecid 5.0 mg/kg no infection (gene silencing only).
(§3) Detection of virus replication. qRT-PCR and TCID50 of the lungs. The lungs of infected animals were longitudinally sectioned. One half of the lung was into TRizol (Invitrogen, Carlsbad, Calif., USA) for isolating total RNA. Another half lung was into MEM/without serum media for TCIT50. The qRT-PCR performance for both of virus replication and the gene expression was like in vitro.

A/WSN/33 [11] = assay: as above; format: in vivo, BALB/c mice
Method: as §1, §2, §3

A/WSN/33 [12] = assay: Inhibition assay in A549 cells (qRT-PCR copy number, NP staining); format: cell-based, Influenza A virus; conditions: A549 cells treated prophylactically or therapeutically, varying concentrations

For `COc1ccc(S(=O)(=O)N(CCO)c2ccccc2CN(C)C/C=C/c2ccc(Cl)cc2)cc1` [KN-93], the inhibition at 250 µM (A/WSN/33 [1]; Influenza A virus, WSN, BEAS-2B, read-out: inhibition of virus replication) was greater than 80%, the “dose dependence of inhibition of virus replication” value (A/WSN/33 [1]; pretreatment 1 h, […]) was “inhibited influenza replication in a dose-dependent manner” and the “number of NP-staining cells compared to control” value (A/WSN/33 [2]) was “not perceptibly affected”. For the same compound, the “CAMKIIB gene expression in lungs” value (CAMKIIB gene expression) was “down-modulation”, the cell cytotoxicity (BEAS2B cells) was “insignificant” and the cell cytotoxicity (BEAS2B cells; 250 uM) was “negligible”. For the same compound, the “cell cytotoxicity compared to the control” value (BEAS2B cells; 500 uM (highest drug concentration)) was 20-30%, the “toxicity in mice treated with drugs only” value [3] was “no apparent toxicity” and the “lung influenza M gene copy number vs control” value (A/WSN/33 [4]; 24 h before infection) was “significantly (p<0.05) shielded”. For the same compound, the “lung influenza M gene copy number vs control” value (A/WSN/33 [4]; 48 h before infection) was “not statistically significant”, the “influenza viral replication in MDCK cells” value (A/WSN/33 [5]) was “inhibits A/WSN/33 influenza viral replication in a dose-dependent manner” and the “lung infectious virus (TCID50) vs control” value (A/CA/04/09; 24 h before infection) was “significantly (p<0.05) different than control”. The “lung infectious virus (TCID50) vs control” value (A/CA/04/09; 48 h before infection) was “not statistically significant” and the “reduction of lung virus titers vs control” value (A/CA/04/09; treatment at 24 h or 48 hpi) was “no significant (p<0.05) effect”.

For `CCCN(CCC)S(=O)(=O)c1ccc(C(=O)O)cc1` [Probenecid, 4-(dipropylsulfamoyl)benzoic acid], the influenza virus replication (A/New Calcdonia/20/90 [6]) is listed as “refractory to influenza virus replication”, the toxicity (A549 cells) is listed as “without causing toxicity” and the “increase of blood concentrations of Tamiflu (oseltamivir)” value [7] is listed as “more than double”. The SLC22A8 gene expression (SLC22A8 gene [8]) was “effectively reduce SLC22A8 gene expression”, the SLC22A8 gene expression (SLC22A8 gene [9]) was “effectively reduce SLC22A8 gene expression” and the “influenza virus replication in lungs” value (A/New Calcdonia/20/90 [10]) was “refractory to influenza virus replication”. The “efficacy relative to Tamiflu” value (A/WSN/33 [11]; 10 mg/kg Probenecid, -24 or +24 h) was “as effective as Tamiflu treatment”, the “influenza virus replication in lungs” value (A/WSN/33 [11]; mice treated prophylactically or therapeutically, varying concentrations) was “refractory to influenza virus replication” and the influenza virus replication (A/WSN/33 [12]) was “refractory to influenza virus replication”.
